How the values were obtained:
[1] = molecular target: T1, p37AUF1 (AUF1, hnRNP D) (Homo sapiens, UniProt Q14103); assay: REMSA, inhibition of AUF1-RNA complex formation; format: binding; details: 750 nM AUF1, 250 nM FAM-labelled TNF ARE RNA; 10 mM Tris-HCl pH 8.0, 50 mM KCl, 2 mM DTT, 0.5 mM EDTA; on ice
T1 construct: gene HNRNPD; recombinant purified p37 isoform; expression details and tags only in supplement
T1 sequence (Q14103 2-287 isoform Q14103-4): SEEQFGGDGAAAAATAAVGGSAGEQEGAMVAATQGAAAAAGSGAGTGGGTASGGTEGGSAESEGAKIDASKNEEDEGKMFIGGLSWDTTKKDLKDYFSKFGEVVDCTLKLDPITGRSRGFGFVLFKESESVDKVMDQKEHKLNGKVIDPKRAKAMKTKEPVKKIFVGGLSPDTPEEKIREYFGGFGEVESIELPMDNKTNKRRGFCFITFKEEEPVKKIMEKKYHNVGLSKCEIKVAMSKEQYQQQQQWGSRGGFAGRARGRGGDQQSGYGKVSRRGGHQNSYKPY

[2] = molecular target: T2, AUF1 (endogenous, CETSA) (Homo sapiens, UniProt Q14103); assay: CETSA, Western blot; format: cell-based; details: HepG2, SK-MEL-2, HCT-116 cells; 1 h treatment at 1, 3.5 or 6 uM
T2 construct: gene HNRNPD; endogenous AUF1 in intact cells, detected by Western blot
T2 sequence (Q14103 2-355): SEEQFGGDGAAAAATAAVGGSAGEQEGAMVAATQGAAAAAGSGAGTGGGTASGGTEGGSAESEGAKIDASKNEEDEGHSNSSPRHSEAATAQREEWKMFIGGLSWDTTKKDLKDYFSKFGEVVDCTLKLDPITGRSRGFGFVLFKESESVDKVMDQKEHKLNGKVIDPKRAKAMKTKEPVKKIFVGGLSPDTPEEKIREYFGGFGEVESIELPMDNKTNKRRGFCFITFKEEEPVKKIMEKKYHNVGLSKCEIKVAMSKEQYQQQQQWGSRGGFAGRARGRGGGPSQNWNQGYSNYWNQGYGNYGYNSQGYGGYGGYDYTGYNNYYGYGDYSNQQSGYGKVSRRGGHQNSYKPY

[3] = molecular target: T1, p37AUF1 (AUF1, hnRNP D); assay: SPR (Biacore 8K, CM5 chip, amine coupling); format: binding; details: 20 mM PB pH 7.4 at immobilization; 5% DMSO; compound at 0-80 uM

Nc1nc(Nc2ccc(S(N)(=O)=O)cc2)nn1C(=O)c1c(F)cccc1F [JNJ-7706621]
REMSA, inhibition of AUF1-RNA complex formation [1]: After adding increasing JNJ-7706621, the bands representing RNA-AUF1 complex weakened | Tm [2]: The melting temperature fitted from the curve in each cell decreased when treated with JNJ-7706621 | SPR (Biacore 8K, CM5 chip, amine coupling) [3]: only one compound, JNJ-7706621, showed a typical binding curve shape
